From BindingDB's records for doi:10.1021/jm801065q (Novartis Institutes For Biomedical Research, 2008)

Key:
[1] = Activity at CXCR4 in rat IR983F cells assessed as inhibition of CXCL12-induced cell migration
[2] = Activity at CXCR4 in human Jurkat T cells assessed as inhibition of CXCL12-induced cell migration

Compound `C1=C(CS/C(=N\C2CCCCC2)NC2CCCCC2)N2CCN=C2S1` [1,3-dicyclohexyl-2-((5,6-dihydroimidazo[2,1-b]thiazol-3-yl)methyl)isothiourea] has an IC50 [1] of 0.029 µM and an IC50 [2] of 0.058 µM.
